We go through one compound from patent US20140364552A1, “AQUEOUS RESIN COMPOSITION COMPRISING FILM-FORMING AID, AND STEEL SHEET SURFACE TREATMENT AGENT CONTAINING THE SAME” (DIC Corporation, priority 2011, published 2014).

The conditions of data set [1]: cited from earlier work.
Data set [2] can be described thus: Evaluating film-forming property (cracks in cast coating film). Format: physicochemical. The procedure:
After drying for 24 hours, the film-forming property was evaluated by visual observation based on criteria below. When no crack occurred, the film-forming property was evaluated as “A”, when fine cracks slightly occurred, the film-forming property was evaluated as “B”, and when clear cracks occurred over the entire surface of the coating film, the film-forming property was evaluated as “C”.

Data set [3] in a line: Corrosion resistance, salt spray test JIS Z2371. The data set is classed as physicochemical.
Protocol: Each of the aqueous resin compositions immediately after preparation was applied on a galvanized steel sheet by using a film applicator so that an amount of application was 0.1 g/100 cm^2 and then dried at 80° C. for 30 seconds to form a test piece. According to a salt spray test method described in JIS Z2371, a 5 mass % aqueous sodium chloride solution was sprayed on the test piece at an ambient temperature of 35° C., and a rate of occurrence of white rust after 240 hours was measured and evaluated based on criteria below. In addition, a tape seal was attached to a portion where the aqueous resin composition was not applied (the end surfaces and back surface). When no white rust occurred, corrosion resistance was evaluated as “A”; when white rust occurred in an area of less than 5% of the whole coating area, corrosion resistance was evaluated as “B”; when white rust occurred in an area of 5% or more and less than 20% of the whole coating area, corrosion resistance was evaluated as “C”; and when white rust occurred in an area of 20% or more of the whole coating area, corrosion resistance was evaluated as “D”.
Data set [4] can be described thus: Evaluating alkali resistance of coating film on galvanized steel sheet. The data set is classed as physicochemical.
Protocol: Each of the aqueous resin compositions immediately after preparation was applied on a galvanized steel sheet by using a film applicator so that an amount of application was 0.1 g/100 cm^2 and then dried at 80° C. for 30 seconds to form a test piece. Next, 0.5 mL of a 5% aqueous sodium hydroxyl solution was dropped on the test piece which was then allowed to stand for 30 minutes. After being allowed to stand, the appearance of a coating film in a portion where the liquid adhered was evaluated based on criteria below. When no change occurred in the appearance, alkali resistance was evaluated as “A”; when the coating film was discolored black or dissolved in an area of less than 10%, alkali resistance was evaluated as “B”; when the coating film was discolored black or dissolved in an area of 10% or more and less than 30%, alkali resistance was evaluated as “C”; and when the coating film was discolored black or dissolved in an area of 30% or more, alkali resistance was evaluated as “D”.

For `CN1CCCC1=O` [N-methyl-2-pyrrolidone], the “toxicity (in words)” value in data set [1] is reported as “problem of toxicity”. The “film-forming property (in words)” value in data set [2] was “excellent”. Besides, the “corrosion resistance of coating film (in words)” value in data set [3] is “excellent”. Besides, the “alkali resistance of coating film (in words)” value in data set [4] is on record as “excellent”.
